The values that follow come from ChEMBL document CHEMBL1144219, “Synthesis of new 4-[2-(4-methyl(amino)sulfonylphenyl)-5-trifluoromethyl-2H-pyrazol-3-yl]-1,2,3,6-tetrahydropyridines: a search for novel nitric oxide donor anti-inflammatory agents” (2008).

The source made the active and inactive calls. The calls are words filed in the database; no cut-off is given here.

The subject of assay [1] is Rattus norvegicus. In words: Antiinflammatory activity against po dosed carrageenan-induced rat foot paw edema model. In kind it is functional.
The subject of assay [2] is Rattus norvegicus. Briefly: Antiinflammatory activity against carrageenan-induced rat foot paw edema model at 100 mg/kg, po. It is filed as functional.

`CS(=O)(=O)c1ccc(-n2nc(C(F)(F)F)cc2C2=CCN(N=O)CC2)cc1` displayed an ED50 in the assay with Rattus norvegicus [1] of 115 mg/kg.

`CN1CC=C(c2cc(C(F)(F)F)nn2-c2ccc(S(C)(=O)=O)cc2)CC1` showed an ED50 in the assay on Rattus norvegicus [1] of 95.3 mg/kg. Same read-out and setting: in the case of `CN1CC=C(c2cc(C(F)(F)F)nn2-c2ccc(S(N)(=O)=O)cc2)CC1` it was 61.2 mg/kg.

With `CCOC(=O)N1CC=C(c2cc(C(F)(F)F)nn2-c2ccc(S(N)(=O)=O)cc2)CC1`, the result with Rattus norvegicus [2] was inactive.

Consider `CC(=O)Oc1ccccc1C(=O)O` [ASPIRIN], for which the ED50 in the assay on Rattus norvegicus [1] was 129 mg/kg.

As to `NS(=O)(=O)c1ccc(-n2nc(C(F)(F)F)cc2C2=CCNCC2)cc1`, the inhibition in vivo at 100 mg/kg in the assay with Rattus norvegicus [2] is 7.1%.

As for `CCOC(=O)N1CC=C(c2cc(C(F)(F)F)nn2-c2ccc(S(C)(=O)=O)cc2)CC1`, testing at 100 mg/kg in the assay on Rattus norvegicus [2] gave an inhibition in vivo of 24.1%.

Molecule `CS(=O)(=O)c1ccc(-n2nc(C(F)(F)F)cc2C2=CCNCC2)cc1` displayed an ED50 in the assay on Rattus norvegicus [1] of 129 mg/kg.
